Paper PMC2729173 (Cancer research, 2009)
Where a name gives a salt, the structure may show the parent alone. Read-outs that look alike come from different tables or passages of the source.

Columns and labels:
[1] = rat; cited from earlier work
BCRP = biological target: T1, BCRP (Homo sapiens, UniProt Q9UNQ0); assay type: cell-based; conditions: for intracellular topotecan lactone concentration: topotecan 500 ng/mL
T1 sequence (Q9UNQ0 1-655): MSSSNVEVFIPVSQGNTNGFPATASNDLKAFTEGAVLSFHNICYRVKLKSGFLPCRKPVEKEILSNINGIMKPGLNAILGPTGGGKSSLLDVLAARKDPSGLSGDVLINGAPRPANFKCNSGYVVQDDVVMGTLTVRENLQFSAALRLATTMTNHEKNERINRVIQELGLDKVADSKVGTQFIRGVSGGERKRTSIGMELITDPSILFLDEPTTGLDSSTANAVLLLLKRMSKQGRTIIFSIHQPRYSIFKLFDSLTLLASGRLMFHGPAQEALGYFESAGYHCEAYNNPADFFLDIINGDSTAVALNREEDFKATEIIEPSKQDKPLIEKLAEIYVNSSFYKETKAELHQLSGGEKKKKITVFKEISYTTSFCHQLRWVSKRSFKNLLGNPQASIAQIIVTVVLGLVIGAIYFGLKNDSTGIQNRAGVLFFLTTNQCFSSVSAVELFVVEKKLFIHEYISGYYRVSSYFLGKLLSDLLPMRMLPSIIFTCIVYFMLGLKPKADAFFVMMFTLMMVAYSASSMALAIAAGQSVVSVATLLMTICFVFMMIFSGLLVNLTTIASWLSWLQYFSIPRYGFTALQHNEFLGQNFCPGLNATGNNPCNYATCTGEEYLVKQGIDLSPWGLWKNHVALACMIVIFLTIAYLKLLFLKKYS

[2] = Intracerebral microdialysis of ventricular CSF; conditions: topotecan 4 mg/kg i.v., three-compartment model
[3] = Intracerebral microdialysis of brain parenchymal ECF; conditions: topotecan 4 mg/kg i.v.; for ECF CLin-to-CLout ratio of unbound topotecan lactone: three-compartment model; for Kp: mouse, brain ECF (striatum microdialysate) vs plasma, intravenous, 4 mg/kg, ECF-to-plasma AUC ratio of unbound topotecan lactone (AUCu,ECF/AUCu,plasma), mean ±SD; for topotecan lactone ECF concentrations: Mdr1a/b−/− mice
[4] = Topotecan lactone plasma protein binding; assay type: in vitro ADME, mice; conditions: mouse, unbound fraction of plasma topotecan lactone, mean ±SD

CCCNCCOc1ccc(NC(=O)c2c[nH]c3c2C(=O)CCC3)cc1F [CP-615,003]
accumulation in CSF relative to ECF [1]: 7 fold

CCC(O)(C(=O)O)c1cc2n(c(=O)c1CO)Cc1cc3c(CN(C)C)c(O)ccc3nc1-2 (centres unmarked) [Topotecan carboxylate]
topotecan carboxylate detection in cells (BCRP; pH 6): not detected | difference in intracellular topotecan carboxylate accumulation between Saos2-pcDNA and Saos2-BCRP cells (BCRP; pH 8, data not shown): no difference

CC[C@@]1(O)C(=O)OCc2c1cc1n(c2=O)Cc2cc3c(CN(C)C)c(O)ccc3nc2-1 [Topotecan, Topotecan hydrochloride]
vCSF CLin-to-CLout ratio of unbound topotecan lactone ([2]; Bcrp1−/− mice): 1.59 ± 0.16 | vCSF CLin-to-CLout ratio of unbound topotecan lactone ([2]; FVB wild-type mice): 3.01 ± 0.15 | vCSF CLin-to-CLout ratio of unbound topotecan lactone ([2]; Mdr1a/b−/− mice): 2.57 ± 0.17 | vCSF CLin-to-CLout ratio of unbound topotecan lactone ([2]; Mdr1a/b−/−Bcrp1−/− mice): 0.86 ± 0.04 | intracellular topotecan lactone concentration (BCRP; Saos2-BCRP cells, 1-min incubation, pH 6): 0.043±0.005 ng/μg protein | intracellular topotecan lactone concentration (BCRP; Saos2-BCRP cells, 30-min incubation, pH 6): 0.026 ± 0.004 ng/µg | intracellular topotecan lactone concentration (BCRP; Saos2-pcDNA control cells, 1-min incubation, pH 6): 0.063±0.01 ng/μg protein | intracellular topotecan lactone concentration (BCRP; Saos2-pcDNA control cells, 30-min incubation, pH 6): 0.039 ± 0.003 ng/µg | ECF CLin-to-CLout ratio of unbound topotecan lactone ([3]; Bcrp1−/− mice): 0.42 ± 0.06 | Kp ([3]; Bcrp1−/−, Bcrp1−/− mice): 0.42 ± 0.06 | ECF CLin-to-CLout ratio of unbound topotecan lactone ([3]; FVB wild-type mice): 0.36 ± 0.06 | Kp ([3]; FVB, Mdr1a/b−/−Bcrp1−/− mice): 0.89 ± 0.07 | topotecan lactone ECF concentrations ([3]; listed as Topotecan lactone): below detectable limits | topotecan lactone ECF concentrations ([3]; listed as topotecan lactone): below the lower limit of detection | ECF CLin-to-CLout ratio of unbound topotecan lactone ([3]; Mdr1a/b−/−Bcrp1−/− mice): 0.89 ± 0.07 | Kp ([3]; Mdr1a/b−/−Bcrp1−/−, Mdr1a/b−/−Bcrp1−/− mice): 0.88 ± 0.07 | fraction unbound ([4]; FVB, wild-type mice): 0.301 | fraction unbound ([4]; Bcrp1−/− mice): 0.309 | fraction unbound ([4]; Mdr1a/b−/− mice): 0.292 | fraction unbound ([4]; Mdr1a/b−/−Bcrp1−/− mice): 0.275
